Values quoted from earlier work, collected in patent US20220304955A1 (Nacuity Pharmaceuticals, Inc., priority 2021, published 2022).

Target: T1, glutamate cysteine ligase (GCL, EC 6.3.2.2) (Homo sapiens, UniProt P48506)
T1 sequence (P48506 1-637): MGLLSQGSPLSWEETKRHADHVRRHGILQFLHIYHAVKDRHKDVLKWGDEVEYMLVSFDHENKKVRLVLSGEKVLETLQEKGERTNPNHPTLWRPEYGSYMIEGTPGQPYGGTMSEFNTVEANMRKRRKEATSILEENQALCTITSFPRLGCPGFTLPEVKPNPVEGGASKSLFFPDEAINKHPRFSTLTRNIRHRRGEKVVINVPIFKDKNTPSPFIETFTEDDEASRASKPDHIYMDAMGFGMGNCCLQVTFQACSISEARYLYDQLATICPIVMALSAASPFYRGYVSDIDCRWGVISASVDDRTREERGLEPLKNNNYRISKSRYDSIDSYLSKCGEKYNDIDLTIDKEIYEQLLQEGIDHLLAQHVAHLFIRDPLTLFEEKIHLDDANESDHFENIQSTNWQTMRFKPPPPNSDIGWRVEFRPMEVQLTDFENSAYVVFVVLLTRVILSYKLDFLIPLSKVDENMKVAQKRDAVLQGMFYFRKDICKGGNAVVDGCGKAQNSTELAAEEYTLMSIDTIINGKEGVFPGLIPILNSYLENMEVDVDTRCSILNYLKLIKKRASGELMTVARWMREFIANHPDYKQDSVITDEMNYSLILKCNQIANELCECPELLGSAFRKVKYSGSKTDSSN
T1 sequence (P48507 1-274 partner): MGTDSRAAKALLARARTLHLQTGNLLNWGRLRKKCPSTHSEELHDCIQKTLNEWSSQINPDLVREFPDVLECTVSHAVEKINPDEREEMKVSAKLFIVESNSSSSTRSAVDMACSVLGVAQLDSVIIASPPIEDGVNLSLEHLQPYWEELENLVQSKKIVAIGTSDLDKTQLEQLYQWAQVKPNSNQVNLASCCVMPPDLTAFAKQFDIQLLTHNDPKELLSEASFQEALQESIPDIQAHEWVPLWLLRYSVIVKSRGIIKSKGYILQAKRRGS
Settings: read-out: apparent Km; cited from earlier work

Compound: N[C@@H](CS)C(=O)O [cysteine, L-cysteine]
- Km: 100 to 300 µM
